Counter-ions that a name gives are not always drawn. Like-named read-outs stand apart in the source and are kept apart here.
Key:
Assay in all cases: cell-based
[1] = molecular target: T1, hP2X3R (Homo sapiens, UniProt P56373); format: cell-based; details: for inhibition at 30 µM: CHO-K1, read-out: hP2X3R % inhib.
T1 construct: expressed in transfected cells; host or cells: CHO-K1
T1 sequence (P56373 1-397): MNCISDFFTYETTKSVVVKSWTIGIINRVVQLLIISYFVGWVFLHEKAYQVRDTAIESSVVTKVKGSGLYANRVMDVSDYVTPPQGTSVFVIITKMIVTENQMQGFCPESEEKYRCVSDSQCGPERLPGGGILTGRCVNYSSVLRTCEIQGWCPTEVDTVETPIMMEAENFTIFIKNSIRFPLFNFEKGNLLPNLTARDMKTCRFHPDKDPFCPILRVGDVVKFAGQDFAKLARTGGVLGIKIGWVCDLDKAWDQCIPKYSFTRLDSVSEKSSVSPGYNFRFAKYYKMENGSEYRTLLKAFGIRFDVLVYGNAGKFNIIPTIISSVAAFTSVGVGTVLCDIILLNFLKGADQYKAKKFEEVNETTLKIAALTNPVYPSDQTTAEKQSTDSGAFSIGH

[2] = molecular target: T2, hP2X2/3R (Homo sapiens, UniProt P56373+Q9UBL9); format: cell-based; details: for inhibition at 30 µM: CHO-K1, read-out: hP2X2/3R % inhib.
T2 construct: expressed in transfected cells; host or cells: CHO-K1
T2 sequence (Q9UBL9 1-471): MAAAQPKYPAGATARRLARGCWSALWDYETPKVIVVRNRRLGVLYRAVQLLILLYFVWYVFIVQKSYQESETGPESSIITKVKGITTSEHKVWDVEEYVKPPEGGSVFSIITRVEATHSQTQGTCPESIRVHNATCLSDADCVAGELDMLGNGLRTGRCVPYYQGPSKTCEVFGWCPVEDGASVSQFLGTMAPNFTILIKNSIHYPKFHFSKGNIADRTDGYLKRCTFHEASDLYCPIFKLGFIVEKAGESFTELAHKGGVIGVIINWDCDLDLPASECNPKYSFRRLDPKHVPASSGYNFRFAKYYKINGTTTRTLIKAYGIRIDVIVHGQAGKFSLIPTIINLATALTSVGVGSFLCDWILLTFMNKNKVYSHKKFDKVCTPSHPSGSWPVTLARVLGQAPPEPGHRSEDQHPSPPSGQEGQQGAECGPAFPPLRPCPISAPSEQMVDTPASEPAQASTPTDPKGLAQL
T2 sequence (P56373 1-397): T1 sequence (P56373 1-397)

[3] = molecular target: T3, hP2X1R (Homo sapiens, UniProt P51575); details: for inhibition at 30 µM: CHO-K1, percent inhibition at 30 μM, agonist α,β-MeATP 1.0 μM, read-out: hP2X1R % inhib.
T3 construct: expressed in transfected cells; host or cells: CHO-K1
T3 sequence (P51575 1-399): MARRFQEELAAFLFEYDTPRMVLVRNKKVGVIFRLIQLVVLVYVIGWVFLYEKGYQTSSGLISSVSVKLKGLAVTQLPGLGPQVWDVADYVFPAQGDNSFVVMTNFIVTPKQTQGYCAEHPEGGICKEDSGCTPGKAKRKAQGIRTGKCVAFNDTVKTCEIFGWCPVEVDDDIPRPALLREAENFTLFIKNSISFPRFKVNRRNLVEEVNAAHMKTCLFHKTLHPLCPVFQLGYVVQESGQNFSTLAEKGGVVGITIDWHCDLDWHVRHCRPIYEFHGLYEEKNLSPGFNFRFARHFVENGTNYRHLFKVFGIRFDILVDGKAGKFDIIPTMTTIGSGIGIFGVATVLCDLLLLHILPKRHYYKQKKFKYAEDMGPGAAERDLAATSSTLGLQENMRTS

[4] = molecular target: T4, hP2X4R (Homo sapiens, UniProt Q99571); format: cell-based; details: for inhibition at 30 µM: HEK293, read-out: hP2X4R % inhib.
T4 construct: expressed in transfected cells; host or cells: HEK-293
T4 sequence (Q99571 1-388): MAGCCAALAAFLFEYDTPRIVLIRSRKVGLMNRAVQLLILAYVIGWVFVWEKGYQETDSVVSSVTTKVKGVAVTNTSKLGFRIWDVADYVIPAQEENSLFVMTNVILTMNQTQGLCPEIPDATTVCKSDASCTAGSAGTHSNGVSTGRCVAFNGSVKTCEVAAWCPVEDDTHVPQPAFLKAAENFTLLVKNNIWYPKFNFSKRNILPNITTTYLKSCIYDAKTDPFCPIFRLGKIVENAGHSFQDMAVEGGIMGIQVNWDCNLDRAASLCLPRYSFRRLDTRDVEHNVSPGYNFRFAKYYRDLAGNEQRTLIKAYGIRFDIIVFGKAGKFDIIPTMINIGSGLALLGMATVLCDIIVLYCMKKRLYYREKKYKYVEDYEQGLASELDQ

[5] = percent inhibition at 30 μM, agonist α,β-MeATP 1.0 μM
[6] = percent inhibition at 30 μM, agonist α,β-MeATP 5.0 μM

Row | Compound | hP2X3R % inhib. [1] | hP2X2/3R % inhib. [2] | hP2X1R % inhib. [3] | hP2X4R inhibitory activity relative to 22a, in words [4] | inhibition at 30 µM [1, 5] | inhibition at 30 µM [2, 6] | inhibition at 30 µM [3] | IC50 ([4]; agonist CTP 10 μM (~EC80)) | other results
1 | 2′,3′-O-Trinitrophenyl-adenosine-5′-triphosphate [TNP-ATP, reference compound] | – | – | – | – | – | – | – | – | IC50 [1]: 0.018 µM; IC50 [2]: 0.064 µM; IC50 [3]: 0.12 µM
2 | CCN(CC)CC.Cc1ccc2c(Br)cc3c(c2c1)NC(=O)CC(=O)N3c1cccc(-c2noc(=S)[nH]2)c1 [Compound 21e, 7-Bromo-10-methyl-5-(3-(5-thioxo-4,5-dihydro-1,2,4-oxadiazol-3-yl)phenyl)-1,5-dihydro-2H-naphtho[1,2-b][1,4]diazepine-2,4(3H)-dione triethylamine salt] | 17% | −5% | −2% | only moderately reduced activity | – | – | – | – | IC50 [4]: 11.8 µM
3 | CCN(CC)CC.[N-]=[N+]=NCc1ccc2ccc3c(c2c1)NC(=O)CC(=O)N3c1cccc(-c2noc(=S)[nH]2)c1 [Compound 21g, 10-(azidomethyl)-5-(3-(5-thioxo-4,5-dihydro-1,2,4-oxadiazol-3-yl)phenyl)-1,5-dihydro-2H-naphtho[1,2-b][1,4]diazepine-2,4(3H)-dione triethylamine salt] | 13% | 4% | 8% | – | – | – | – | – | hP2X4R % inhib. [4]: 6%
4 | CCN(CC)CC.[N-]=[N+]=NCc1ccc2c(Br)cc3c(c2c1)NC(=O)CC(=O)N3c1cccc(-c2noc(=S)[nH]2)c1 [Compound 21h, 10-(azidomethyl)-7-bromo-5-(3-(5-thioxo-4,5-dihydro-1,2,4-oxadiazol-3-yl)phenyl)-1,5-dihydro-2H-naphtho[1,2-b][1,4]diazepine-2,4(3H)-dione triethylamine salt] | 15% | −4% | −13% | inactive | – | – | – | – | hP2X4R % inhib. [4]: 8%
5 | CC(=O)NCc1ccc2ccc3c(c2c1)NC(=O)CC(=O)N3c1cccc(-c2noc(=S)[nH]2)c1.CCN(CC)CC [Compound 21i, N-((2,4-Dioxo-5-(3-(5-thioxo-4,5-dihydro-1,2,4-oxadiazol-3-yl)phenyl)-2,3,4,5-tetrahydro-1H-naphtho[1,2-b][1,4]diazepin-10-yl)methyl) acetamide triethylamine salt] | – | – | – | inactive | – | – | – | – | hP2X3R % inhib. [1, 5]: 9%; hP2X2/3R % inhib. [2, 6]: −5%; hP2X4R % inhib. ([4]; percent inhibition at 30 μM, agonist CTP 10 μM): 16%
6 | CCN(CC)CC.[N-]=[N+]=NCc1ccc2c3c(ccc2c1)N(c1cccc(-c2noc(=S)[nH]2)c1)C(=O)CC(=O)N3 [Compound 21j, 9-(Azidomethyl)-5-(3-(5-thioxo-4,5-dihydro-1,2,4-oxadiazol-3-yl)phenyl)-1,5-dihydro-2H-naphtho[1,2-b][1,4]diazepine-2,4(3H)-dione triethylamine salt] | 0% | 2% | −5% | destabilizing | – | – | – | – | IC50 [4]: 21.3 µM
7 | O=C1CC(=O)N(c2cccc(-c3noc(=S)[nH]3)c2)c2cc(C#Cc3ccccc3)c3ccccc3c2N1 [Compound 21m, 7-(Phenylethynyl)-5-(3-(5-thioxo-4,5-dihydro-1,2,4-oxadiazol-3-yl)phenyl)-1,5-dihydro-2H-naphtho[1,2-b][1,4]diazepine-2,4(3H)-dione] | – | – | – | – | 7% | 5% | 14% | – | inhibition at 30 µM [4]: -4%
8 | O=C1CC(=O)N(c2cccc(-c3noc(=S)[nH]3)c2)c2cc(C#Cc3cccnc3)c3ccccc3c2N1 [Compound 21n, 7-(Pyridin-3-ylethynyl)-5-(3-(5-thioxo-4,5-dihydro-1,2,4-oxadiazol-3-yl)phenyl)-1,5-dihydro-2H-naphtho[1,2-b][1,4]diazepine-2,4(3H)-dione] | – | – | – | – | 9% | 13% | 9% | – | inhibition at 30 µM [4]: 34%
9 | CCCCC#Cc1cc2c(c3ccccc13)NC(=O)CC(=O)N2c1cccc(-c2noc(=S)[nH]2)c1 [Compound 21o, 7-(Hex-1-yn-1-yl)-5-(3-(5-thioxo-4,5-dihydro-1,2,4-oxadiazol-3-yl)phenyl)-1,5-dihydro-2H-naphtho[1,2-b][1,4]diazepine-2,4(3H)-dione] | – | – | – | – | 18% | 1% | 16% | – | inhibition at 30 µM [4]: 15%
10 | CCc1cc2c(c3ccccc13)NC(=O)CC(=O)N2c1cccc(-c2noc(=S)[nH]2)c1 [Compound 21p, 7-Ethyl-5-(3-(5-thioxo-4,5-dihydro-1,2,4-oxadiazol-3-yl)phenyl)-1,5-dihydro-2H-naphtho[1,2-b][1,4]diazepine-2,4(3H)-dione triethylamine salt] | – | – | – | – | 6% | 10% | 6% | 5.13 µM | –
11 | CCN(CC)CC.NCc1ccc2ccc3c(c2c1)NC(=O)CC(=O)N3c1cccc(-c2noc(=S)[nH]2)c1 [Compound 21q, 10-(Aminomethyl)-5-(3-(5-thioxo-4,5-dihydro-1,2,4-oxadiazol-3-yl)phenyl)-1,5-dihydro-2H-naphtho[1,2-b][1,4]diazepine-2,4(3H)-dione triethylamine salt] | 9% | 0% | 8% | – | – | – | – | – | hP2X4R % inhib. [4]: 9%
12 | Cc1cc(-c2noc(=S)[nH]2)cc(N2C(=O)CC(=O)Nc3c2ccc2ccccc32)c1 [Compound 21r, 5-(3-Methyl-5-(5-thioxo-4,5-dihydro-1,2,4-oxadiazol-3-yl)phenyl)-1,5-dihydro-2H-naphtho[1,2-b][1,4]diazepine-2,4(3H)-dione] | – | – | – | – | 12% | 5% | 16% | 14 µM | –
13 | O=C1CC(=O)N(c2cc(-c3noc(=S)[nH]3)ccn2)c2ccc3ccccc3c2N1 [Compound 21s, 5-(4-(5-Thioxo-4,5-dihydro-1,2,4-oxadiazol-3-yl)pyridin-2-yl)-1,5-dihydro-2H-naphtho[1,2-b][1,4]diazepine-2,4(3H)-dione triethylamine salt] | – | – | – | reduce | 18% | -6% | 18% | 13.5 µM | –
14 | O=C1CC(=O)N(c2cncc(-c3noc(=S)[nH]3)c2)c2ccc3ccccc3c2N1 [Compound 21t, 5-(5-(5-Thioxo-4,5-dihydro-1,2,4-oxadiazol-3-yl)pyridin-3-yl)-1,5-dihydro-2H-naphtho[1,2-b][1,4]diazepine-2,4(3H)-dione triethylamine salt] | – | – | – | reduce | 6% | 25% | 15% | 14.6 µM | –
15 | O=C1CC(=O)N(c2cccc(-c3noc(=S)[nH]3)n2)c2ccc3ccccc3c2N1 [Compound 21v, 5-(6-(5-Thioxo-4,5-dihydro-1,2,4-oxadiazol-3-yl)pyridin-2-yl)-1,5-dihydro-2H-naphtho[1,2-b][1,4]diazepine-2,4(3H)-dione triethylamine salt] | – | – | – | reduce | 17% | 15% | ≤ 31% | 6.48 µM | –

— US20250360143A1, “COMPOSITIONS AND METHODS FOR PHA[…] OF STROKE AND […] REPERFUSION INJURY” (priority 2022, published 2025)
